In patent US20150335678A1, “METHOD OF ACTIVATING STEM CELLS IN AN ANIMAL AND THE USE OF CHLORINE DIOXIDE FOR PREPARING MEDICINES FOR ACTIVATING STEM CELLS IN AN ANIMAL” (priority 2012, published 2015):

Legend:
chronic eczema = test: Chronic eczema patients, topical solution (Example 7); assay type: in vivo, human
Description: The subjects consisted of 12 patients with chronic eczema and average seven years of course of disease. External used medicines and oral administration, such as glucocorticoid and antihistamine drug were used discontinuously, but were poor in treatment. Activating agent was administered according to the following methods:
To smear solution over the affected parts immediately, once a day for consecutive 10 to 15 days, and then stop administration. If the eczema relapsed, reusing it again.

Ankylosing spondylitis = Ankylosing spondylitis patients: BASRI, Harris hip score, BASDAI, BASFI, ESR, CRP (Example 6); settings: for BASDAI: before treatment 6.4 ± 1.8; for BASFI: before treatment 7.3 ± 1.6; for CRP: before treatment 17.6 ± 4.2; for ESR: before treatment 29.4 ± 9.8; for BASRI Staging: before treatment 45 ± 5; for Harris hip score: before treatment 82 ± 6
Description: The first solution was a mixed solution made of sodium chlorite with the concentration of 7.47% and sodium chloride with the concentration of 1.59% with deionized water; the second solution was made of citric acid with the concentration of 16.7% with deionized water. Same volume of solutions were taken out from different vessels with different volume and put into the suitable glass or plastic cups prepared. Allow the solution to mix for 3-5 minutes and then filter the solution with 0.22 μm filter membrane of double-deck, dimethyl sulfoxide was added in the ratio of 1:1. The solution was smeared over the region immediately and repeatedly, once a day for consecutive three weeks. The administration was stopped for a week, and then began the treatment for consecutive three weeks, stop the drug for a week. The medicine was repeated for four cycles. Clean and disinfect the area before administration and conduct local anesthetic 30 minutes before operation. To use corresponding amount of solution according to different regions, varying from 1-10 ml/100 cm^2.
The subjects consisted of 8 male and 4 female AS patients aged from 18 to 40 years old (average age: 26 years old).
Mean index: the index of X ray of the hip joints:
Stage I: suspicious change, local joint space may become narrower, 25 points;
Stage II: mildly abnormal, joint space becomes narrower obviously, the space>2 mm, 50 points;
Stage III: moderately abnormal, joint space becomes narrow, and the space <2 mm or the local joint space disappears, articular surfaces <2 mm, 75 points;
Stage IV: severe abnormal, bone deformation, articular surfaces >2 cm, 100 points.
If two of the three symptoms, namely, erosion and damage, syndesmophyte formation, arthrokatadysis appear during stage I and II, it should increase a level accordingly. BASRI evaluation was given according to different levels. Harris score: full score is 100 points, including pain degree of hip joints (44 points), function of hip joints (47 points), degree of lower limb malformation (4 points), range of activity of hip joints (5 points). Corresponding scores were given according to degrees. BASFI, BASDAI, ESR, CRP were applied in evaluating disease activity and function.

[1] = test system: CD34-positive mononuclear cells; test: CD34-positive mononuclear cells in peripheral blood of lower limb DVT patients, flow cytometry (Example 2); assay type: in vivo, human; settings: before administration 0.38 ± 0.42, 14 days
Description: (§1) The subjects consisted of 14 male and 6 female lower limb DVT patients with the unilateral limb suffer from the illness, aged from 59 to 76 years old (average age: 67.2 years old). The purpose of the clinical test was explained to all subjects and their consent was obtained before conducting the clinical test.
The first solution was a mixed solution made of sodium chlorite with the concentration of 7.47% and sodium chloride with the concentration of 1.59% with deionized water; the second solution was made of citric acid with the concentration of 16.7% with deionized water. Same volume of solutions were taken out from different vessels with different volumes and mixed up. Allow the solution to mix for 3-5 minutes and dilute it 5 times with normal saline, then filter it with 0.22 μm filter membrane of double-deck. The solution was immediately put into injector. The solution was prepared once being used. […]
(§2) Five ml of peripheral blood was collected from the median cubital vein of the forearm of each patient using low molecular weight heparin anticoagulant before administration (before initial administration) and on day 7 and 14 after administration, and the collected blood was immediately stored at 4° C. and measured within 6 hours after collection. […]

[2] = test system: androgenetic alopecia (hair-loss patients); test: Androgenetic alopecia patients, solution smeared on alopecia area (Example 1); settings: for increased ratio of hair density vs before administration, Region 1 (center of crown) / increased ratio of hair density vs before administration, Region 2 (middle of crown and forehead) / increased ratio of hair density vs before administration, Region 3 (on the forehead) / increased ratio of hair density vs before administration, Region 4 (both sides of forehead): 5.1 cm2 circle
Description: Drug preparation: The first solution was a mixed solution made of sodium chlorite with the concentration of 7.47% and sodium chloride with the concentration of 1.59% with deionized water; the second solution was made of citric acid with the concentration of 16.7% with deionized water.
Dosage and administration: Same volume of solutions were taken out from different vessels with different volumes and put into the suitable glass or plastic cups prepared. Allow the solution to mix for 3-5 minutes and then filter the solution with 0.22 μm filter membrane of double-deck. The alopecia area was smeared with the solution by swab, waiting for 1-2 hours before cleaning the head, once a day. The medicine was taken according to the course of treatment. The first course of treatment was 15-25 days, the second course of treatment began after 2-5 months of drug withdrawal. The administration days were 10-15 days from the second course of treatment, and the next course of treatment began after 2-5 months of drug withdrawal.
The subjects consisted of 42 male hair-loss patients and one patient (22-68 years old.) They were willing to use the drug (hereinafter referred to as administration). See Table 1 for specific information.
To select four circular regions (5.1 cm^2) with diameter of 2.54 cm in the following regions: the center of crown (in front of the whirl on the head, region 1), the middle of crown and forehead (region2), on the forehead (region 3), both sides of forehead (region 4), and calculate the amount of hair through digital photographs respectively on the 10th day (t1), the first month (t2), second month (t3) after administration of the first course of treatment, and the second month (t4) after administration of the second course of treatment, as well as the second month (t5) after administration of the third course of treatment. Then the increased ratios of hair density in different regions were worked out by comparing the amount of hair before administration. (See Table 2)

[3] = test system: CD34-positive/CD31-positive mononuclear cells; test: CD34-positive/CD31-positive mononuclear cells in peripheral blood of lower limb DVT patients, flow cytometry; assay type: in vivo, human; settings: before administration 0.28 ± 0.30, diluted solution 10 ml/body/day femoral artery puncture, 14 days
Description: as §1
The first solution was a mixed solution made of sodium chlorite with the concentration of 7.47% and sodium chloride with the concentration of 1.59% with deionized water; the second solution was made of citric acid with the concentration of 16.7% with deionized water. Same volume of solutions were taken out from different vessels with different volumes and mixed up. […]
as §2
CD34-positive mononuclear cells/CD31-positive mononuclear cells were isolated by double immunofluorescent using flow cytometry. […] Next, CD34/CD31-positive mononuclear cells were isolated and counted by flow cytometry. The ratio (%) of CD34/CD 31-positive mononuclear cells among the mononuclear cells was calculated according to the following formula. […]

[4] = 12 cases traced for eight months
[5] = 12 AS patients, topical with DMSO
[6] = the sixth month, 12 AS patients, topical with DMSO
[7] = the third month, 12 AS patients, topical with DMSO
[8] = 2-6 days after administration, n=43, NaClO2 7.47% + citric acid 16.7% 1:1, topical once a day
[9] = 3-5 days after administration, n=43, NaClO2 7.47%/NaCl 1.59% + citric acid 16.7% mixed 1:1, smeared on alopecia area once a day
[10] = 15-25 days after administration, n=43, NaClO2 7.47% + citric acid 16.7% 1:1, topical once a day
[11] = T1: 10th day, first course, n=43, NaClO2 7.47% + citric acid 16.7% topical
[12] = T2: first month after administration of first course, n=43, NaClO2 7.47% + citric acid 16.7% topical
[13] = T3: second month after administration of first course, n=43, NaClO2 7.47% + citric acid 16.7% topical
[14] = T4: second month after administration of second course, n=43, NaClO2 7.47% + citric acid 16.7% topical
[15] = T5: second month after administration of third course, n=43, NaClO2 7.47% + citric acid 16.7% topical
[16] = inventor's observation, chlorine dioxide solution applied every day
[17] = medicine stopped for 2-5 months after a course of treatment, n=43, NaClO2 7.47% + citric acid 16.7% 1:1, topical once a day

For `[O][Cl+][O-]` [chlorine dioxide solution, chlorine dioxide], the “cases that recurred once and did not recur after treatment for two times” value (chronic eczema; [4]) was “four”, the “cases that recurred twice and did not recur after the third treatment” value (chronic eczema; [4]) was “two” and the “cases with no recurrence” value (chronic eczema; [4]) was “six”. The “clinical sign and pathological change of tissue after treatment” value (chronic eczema; 12 chronic eczema patients) was “became normal”, the “time until stabbing pain and itching disappeared after administration” value (chronic eczema; 12 chronic eczema patients, NaClO2 8%/NaCl 2% + citric acid 12% 1:1, smeared once a day 10 to 15 days) was “about half an hour” and the “time until the affected parts scabbed” value (chronic eczema; 12 chronic eczema patients, topical once a day) was “two to five days”. The “time until pain and itch during administration disappear completely” value (Ankylosing spondylitis; [5]) was “after an hour”, the tolerance (Ankylosing spondylitis; [5]) was “without local or systemic anaphylactic reaction” and the “change of BASRI staging of the involved hip joints vs before administration” value (Ankylosing spondylitis; six months after administration) was “reduced a level”. The BASDAI (Ankylosing spondylitis; [6]) was 3.0 ± 1.2, the BASFI (Ankylosing spondylitis; [6]) was 2.9 ± 1.1 and the CRP (Ankylosing spondylitis; [6]) was 1.2 ± 0.6. The ESR (Ankylosing spondylitis; [6]) was 9.1 ± 6.8, the “BASRI Staging” value (Ankylosing spondylitis; [6]) was 25 ± 8 and the Harris hip score (Ankylosing spondylitis; [6]) was 32 ± 4. The BASDAI (Ankylosing spondylitis; [7]) was 3.6 ± 1.5, the BASFI (Ankylosing spondylitis; [7]) was 3.3 ± 1.4 and the CRP (Ankylosing spondylitis; [7]) was 6.3 ± 3.5. The ESR (Ankylosing spondylitis; [7]) was 11.8 ± 7.6, the “BASRI Staging” value (Ankylosing spondylitis; the third month, 12 AS patients, NaClO2 7.47% + citric acid 16.7% 1:1, DMSO 1:1, smeared once a day, three weeks on/one week off, four cycles) was 30 ± 6 and the Harris hip score (Ankylosing spondylitis; [7]) was 49 ± 5. For the same compound, the “change of BASRI staging of the involved hip joints vs before administration” value (Ankylosing spondylitis; three months after administration) was “reduced half level”, the “CD34-Positive Mononuclear Cells (ratio among mononuclear cells, mean±SD)” value ([1]; Day 7 after administration, n=20, NaClO2 7.47% + citric acid 16.7% 1:1 diluted 5 times, 10 ml/body/day femoral artery puncture) was 0.91 ± 0.51 % and the “CD34-Positive Mononuclear Cells (ratio among mononuclear cells, mean±SD)” value ([1]; Day 14 after administration, n=15, diluted solution 10 ml/body/day femoral artery puncture) was 1.4 ± 0.68 %. The “Effective rate: hair in the affected area fell off quickly” value [2, 8] was 100%, the “No. effective patients: hair in the affected area fell off quickly” value [2, 8] was 43 and the “Effective rate: beard like new hair regrew, seen by naked eyes” value [2, 9] was 98%. The “No. effective patients: beard like new hair regrew, seen by naked eyes” value [2, 9] was 42, the “Effective rate: new hair grew persistently” value [2, 10] was 93% and the “No. effective patients: new hair grew persistently” value [2, 10] was 40. For the same compound, the “increased ratio of hair density vs before administration, Region 1 (center of crown)” value (from here on “increased ratio … (center of crown)”) ([2]; T1: 10th day, first course, digital photographs, n=43, NaClO2 7.47% + citric acid 16.7% topical once a day) was 123%, the “increased ratio of hair density vs before administration, Region 2 (middle of crown and forehead)” value (from here on “increased ratio … (middle of crown and forehead)”) [2, 11] was 117% and the “increased ratio of hair density vs before administration, Region 3 (on the forehead)” value (shortened to “increased ratio … (on the forehead)”) [2, 11] was 133%. The “increased ratio of hair density vs before administration, Region 4 (both sides of forehead)” value (shortened to “increased ratio … (both sides of forehead)”) [2, 11] was 102%, the “increased ratio … (center of crown)” value [2, 12] was 137% and the “increased ratio … (middle of crown and forehead)” value [2, 12] was 129%. For the same compound, the “increased ratio … (on the forehead)” value [2, 12] was 134%, the “increased ratio … (both sides of forehead)” value [2, 12] was 157% and the “increased ratio … (center of crown)” value [2, 13] was 154%. For the same compound, the “increased ratio … (middle of crown and forehead)” value [2, 13] was 142%, the “increased ratio … (on the forehead)” value [2, 13] was 153% and the “increased ratio … (both sides of forehead)” value [2, 13] was 163%. For the same compound, the “increased ratio … (center of crown)” value [2, 14] was 196%, the “increased ratio … (middle of crown and forehead)” value [2, 14] was 185% and the “increased ratio … (on the forehead)” value [2, 14] was 201%. For the same compound, the “increased ratio … (both sides of forehead)” value [2, 14] was 260%, the “increased ratio … (center of crown)” value [2, 15] was 354% and the “increased ratio … (middle of crown and forehead)” value [2, 15] was 402%. For the same compound, the “increased ratio … (on the forehead)” value [2, 15] was 396%, the “increased ratio … (both sides of forehead)” value [2, 15] was 433% and the “time until new hair could grow, most of patients” value ([2]; after administration, topical once a day) was 2 to 3 days. The “duration of stabbing pain after application” value ([2]; human, in vivo) was 15 to 30 min, the “time until new hair grows in alopecia area with hair” value [2, 16] was “third to the fifth day” and the “time until new hair grows in alopecia area without hair” value [2, 16] was “about 20 days”. For the same compound, the “Effective rate: hair recovered by one level, judged by naked eyes” value [2, 17] was 81%, the “No. effective patients: hair recovered by one level, judged by naked eyes” value [2, 17] was 35 and the “skin reaction in the administered area” value ([2]; when administered for three days, red spot like solidified bleeding wound) was “micro wound was produced”. For the same compound, the “CD34-Positive/CD31-Positive Mononuclear Cells (ratio among mononuclear cells, mean±SD)” value ([3]; Day 7 after administration, n=20) was 0.85 ± 0.51 % and the “CD34-Positive/CD31-Positive Mononuclear Cells (ratio among mononuclear cells, mean±SD)” value ([3]; Day 14 after administration, n=15) was 1.1 ± 0.65 %.
